Experimental data as given in US20150299188A1, “HETEROCYCLIC COMPOUND” (priority 2012, published 2015).

test system: FLAP (5-lipoxygenase activating protein); test: In vitro binding test: displacement of [3H]-7-chloro-3-(5-((3-fluoropyridin-2-yl)methoxy)-2-methylphenyl)-3,4-dihydroquinazolin-2(1H)-one from Sf9 microsome fractions; parameters: species or system human and mouse; details: Sf9 microsome fractions expressing FLAP; 100% = radioligand binding with 10 μM sodium 3-(3-(tert-butylsulfanyl)-1-(4-chlorobenzyl)-5-isopropyl-1H-indol-2-yl)-2,2-dimethylpropanoate, 0% = DMSO; test compound concentration not given
Method in brief: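 Sf9 microsomes expressing human or mouse FLAP (2 μg/mL) preincubated with compound 10 min at room temperature, then 120 nM tritiated quinazolinone ligand added for 60 min; buffer 100 mM Tris-HCl pH 7.5 with NaCl, EDTA, DTT, glycerol, Tween20. Bound ligand filtered and counted by scintillation; 10 μM indole propanoate defines 100% inhibition, DMSO 0%.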

| inhibitory rate (%) | Compound |
| --- | --- |
| 72 | Cc1ccc(OCc2c(F)cccc2F)cc1N1Cc2c(cccc2C(C)(C)O)NC1=O [Example 202, 3-(5-((2,6-difluorobenzyl)oxy)-2-methylphenyl)-5-(2-hydroxypropan-2-yl)-3,4-dihydroquinazolin-2(1H)-one] |
| 98 | O=C(c1cc2c(c(C3CC3)n1)CN(c1cc3c(cc1Cl)CCC(c1ncccc1F)O3)C(=O)N2)N1CC(F)(F)C1 (centres unmarked) [Example 139, 3-(6-chloro-2-(3-fluoropyridin-2-yl)-3,4-dihydro-2H-chromen-7-yl)-5-cyclopropyl-7-((3,3-difluoroazetidin-1-yl)carbonyl)-3,4-dihydropyrido[4,3-d]pyrimidin-2(1H)-one] |
| 101 | Cc1ccc(OCc2ncccc2F)cc1-n1c(=O)[nH]c2cc(NC(=O)C3CC3)ccc2c1=O [Example 350, N-(3-(5-((3-fluoropyridin-2-yl)methoxy)-2-methylphenyl)-2,4-dioxo-1,2,3,4-tetrahydroquinazolin-7-yl)cyclopropanecarboxamide] |
| 95 | Cc1ccc(OCc2ncccc2F)cc1N1Cc2c(Cl)cccc2N(Cc2ccccc2C(=O)O)C1=O [Example 296, 2-((5-chloro-3-(5-((3-fluoropyridin-2-yl)methoxy)-2-methylphenyl)-2-oxo-3,4-dihydroquinazolin-1(2H)-yl)methyl)benzoic acid] |
| 113 | O=C1Nc2ccccc2CN1c1cc(OCc2ncccc2F)ccc1Br [Example 212, 3-(2-bromo-5-((3-fluoropyridin-2-yl)methoxy)phenyl)-3,4-dihydroquinazolin-2(1H)-one] |
| 109 | Cc1cc2c(cc1N1Cc3c(Cl)cnc(-c4c(C)noc4C)c3NC1=O)OC(c1ncccc1F)CC2 (single isomer, unassigned; (-)) [Example 11, (−)-5-chloro-8-(3,5-dimethyl-1,2-oxazol-4-yl)-3-(2-(3-fluoropyridin-2-yl)-6-methyl-3,4-dihydro-2H-chromen-7-yl)-3,4-dihydropyrido[3,4-d]pyrimidin-2(1H)-one] |
| 89 | NC(=O)c1cc2c(c(C3CC3)n1)CN(c1cc3c(cc1Cl)CCC(c1ncccc1F)O3)C(=O)N2 (centres unmarked) [Example 95, 3-(6-chloro-2-(3-fluoropyridin-2-yl)-3,4-dihydro-2H-chromen-7-yl)-5-cyclopropyl-2-oxo-1,2,3,4-tetrahydropyrido[4,3-d]pyrimidine-7-carboxamide] |
| 100 | Cc1cc2c(cc1N1Cc3c(cc(-n4cc(C(F)(F)F)cn4)nc3C3CC3)NC1=O)OC(c1ncccc1F)CC2 (centres unmarked) [Example 154, 5-cyclopropyl-3-(2-(3-fluoropyridin-2-yl)-6-methyl-3,4-dihydro-2H-chromen-7-yl)-7-(4-(trifluoromethyl)-1H-pyrazol-1-yl)-3,4-dihydropyrido[4,3-d]pyrimidin-2(1H)-one] |
| 104 | Cc1cc2c(cc1N1Cc3c(cc(-n4cccn4)nc3C3CC3)NC1=O)OC(c1ncccc1F)CC2 (centres unmarked) [Example 132, 5-cyclopropyl-3-(2-(3-fluoropyridin-2-yl)-6-methyl-3,4-dihydro-2H-chromen-7-yl)-7-(1H-pyrazol-1-yl)-3,4-dihydropyrido[4,3-d]pyrimidin-2(1H)-one] |
| 99 | Cc1cc2c(cc1N1Cc3c(Cl)cnc(-c4c(C)noc4C)c3NC1=O)OC(c1ncccc1F)CC2 (single isomer, unassigned; (+)) [Example 12, (+)-5-chloro-8-(3,5-dimethyl-1,2-oxazol-4-yl)-3-(2-(3-fluoropyridin-2-yl)-6-methyl-3,4-dihydro-2H-chromen-7-yl)-3,4-dihydropyrido[3,4-d]pyrimidin-2(1H)-one] |
| 106 | Cc1ccc(OCc2ncccc2F)cc1-n1c(=O)[nH]c2c(OCC3CC3)cccc2c1=O [Example 353, 8-(cyclopropylmethoxy)-3-(5-((3-fluoropyridin-2-yl)methoxy)-2-methylphenyl)quinazoline-2,4(1H,3H)-dione] |
| 103 | Cc1ccc(OCc2ncccc2Cl)cc1N1Cc2ccccc2NC1=O [Example 187, 3-(5-((3-chloropyridin-2-yl)methoxy)-2-methylphenyl)-3,4-dihydroquinazolin-2(1H)-one] |
| 106 | O=C1Nc2c(C3CC3)ncc(F)c2CN1c1cc2c(cc1Cl)CCC(c1ncccc1F)O2 (centres unmarked) [Example 166, 3-(6-chloro-2-(3-fluoropyridin-2-yl)-3,4-dihydro-2H-chromen-7-yl)-8-cyclopropyl-5-fluoro-3,4-dihydropyrido[3,4-d]pyrimidin-2(1H)-one] |
| 109 | Cc1cc2c(cc1N1Cc3c(cc(/C=C/C(=O)O)nc3C3CC3)NC1=O)OC(c1ncccc1F)CC2 (centres unmarked) [Example 91, (2E)-3-(5-cyclopropyl-3-(2-(3-fluoropyridin-2-yl)-6-methyl-3,4-dihydro-2H-chromen-7-yl)-2-oxo-1,2,3,4-tetrahydropyrido[4,3-d]pyrimidin-7-yl)acrylic acid] |
| 69 | Cc1ccc(OCc2c(F)cccc2F)cc1N1Cc2cnn(C)c2NC1=O [Example 311, 5-(5-((2,6-difluorobenzyl)oxy)-2-methylphenyl)-1-methyl-1,4,5,7-tetrahydro-6H-pyrazolo[3,4-d]pyrimidin-6-one] |
| 117 | O=C1Nc2ccnc(N3CCOCC3)c2CN1c1cc2c(cc1Cl)CCC(c1ncccc1F)O2 (centres unmarked) [Example 58, 3-(6-chloro-2-(3-fluoropyridin-2-yl)-3,4-dihydro-2H-chromen-7-yl)-5-(morpholin-4-yl)-3,4-dihydropyrido[4,3-d]pyrimidin-2(1H)-one] |
| 95 | COCCOc1cccc2[nH]c(=O)n(-c3cc(OCc4ncccc4F)ccc3C)c(=O)c12 [Example 366, 3-(5-((3-fluoropyridin-2-yl)methoxy)-2-methylphenyl)-5-(2-methoxyethoxy)quinazoline-2,4(1H,3H)-dione] |
| 99 | COCCOc1cnc(C(F)(F)F)c2c1NC(=O)N(c1cc3c(cc1C)CCC(c1ncccc1F)O3)C2 (centres unmarked) [Example 110, 3-(2-(3-fluoropyridin-2-yl)-6-methyl-3,4-dihydro-2H-chromen-7-yl)-8-(2-methoxyethoxy)-5-(trifluoromethyl)-3,4-dihydropyrido[4,3-d]pyrimidin-2(1H)-one] |
| 96 | Cc1cc2c(cc1N1Cc3c(ccnc3C(F)F)NC1=O)OC(c1ncccc1F)CC2 (centres unmarked) [Example 24, 5-(difluoromethyl)-3-(2-(3-fluoropyridin-2-yl)-6-methyl-3,4-dihydro-2H-chromen-7-yl)-3,4-dihydropyrido[4,3-d]pyrimidin-2 (1H)-one] |
| 102 | O=C1Nc2c(N3CCOCC3)ncc(Cl)c2CN1c1cc2c(cc1Cl)CCC(c1ncccc1F)O2 (centres unmarked) [Example 81, 5-chloro-3-(6-chloro-2-(3-fluoropyridin-2-yl)-3,4-dihydro-2H-chromen-7-yl)-8-(morpholin-4-yl)-3,4-dihydropyrido[3,4-d]pyrimidin-2(1H)-one] |
| 97 | O=C1Nc2ccnc(Cl)c2CN1c1cc2c(cc1Cl)CC[C@H](c1ncccc1F)O2 [Example 3, 5-chloro-3-((2R)-6-chloro-2-(3-fluoropyridin-2-yl)-3,4-dihydro-2H-chromen-7-yl)-3,4-dihydropyrido[4,3-d]pyrimidin-2(1H)-one] |
| 116 | Cc1ccc(OCc2ncccc2F)cc1N1Cc2ccc(C(=O)NC3CC3)cc2NC1=O [Example 261, N-cyclopropyl-3-(5-((3-fluoropyridin-2-yl)methoxy)-2-methylphenyl)-2-oxo-1,2,3,4-tetrahydroquinazoline-7-carboxamide] |
| 109 | Cc1cc2c(cc1N1Cc3c(cc(N4CCOC4=O)nc3C3CC3)NC1=O)OC(c1ncccc1F)CC2 (centres unmarked) [Example 138, 5-cyclopropyl-3-(2-(3-fluoropyridin-2-yl)-6-methyl-3,4-dihydro-2H-chromen-7-yl)-7-(2-oxo-1,3-oxazolidin-3-yl)-3,4-dihydropyrido[4,3-d]pyrimidin-2(1H)-one] |
| 52 | COc1ncnc2c1CN(c1cc(OCc3ncccc3F)ccc1C)C(=O)N2 [Example 319, 3-(5-((3-fluoropyridin-2-yl)methoxy)-2-methylphenyl)-5-methoxy-3,4-dihydropyrimido[4,5-d]pyrimidin-2(1H)-one] |
| 98 | Cc1cc2c(cc1N1Cc3c(ccnc3C(F)(F)F)NC1=O)O[C@H](c1ncccc1F)CC2 [Example 6, 3-((2S)-2-(3-fluoropyridin-2-yl)-6-methyl-3,4-dihydro-2H-chromen-7-yl)-5-(trifluoromethyl)-3,4-dihydropyrido[4,3-d]pyrimidin-2(1H)-one] |
| 95 | O=C1CNCCN1c1cc2c(c(C3CC3)n1)CN(c1cc3c(cc1Cl)CCC(c1ncccc1F)O3)C(=O)N2 (centres unmarked) [Example 125, 3-(6-chloro-2-(3-fluoropyridin-2-yl)-3,4-dihydro-2H-chromen-7-yl)-5-cyclopropyl-7-(2-oxopiperazin-1-yl)-3,4-dihydropyrido[4,3-d]pyrimidin-2(1H)-one] |
| 111 | Cc1ccc(OCc2ncccc2F)cc1N1Cc2c(Cl)cccc2N(C)C1=O [Example 269, 5-chloro-3-(5-((3-fluoropyridin-2-yl)methoxy)-2-methylphenyl)-1-methyl-3,4-dihydroquinazolin-2(1H)-one] |
| 98 | Cc1ccc(OCc2ncccc2F)cc1N1Cc2c(Br)cccc2NC1=O [Example 282, 5-bromo-3-(5-((3-fluoropyridin-2-yl)methoxy)-2-methylphenyl)-3,4-dihydroquinazolin-2(1H)-one] |
| 95 | COC(=O)c1ccc2c(c1)NC(=O)N(c1cc(OCc3c(F)cccc3F)ccc1C(=O)OC)C2 [Example 176, methyl 3-(5-((2,6-difluorobenzyl)oxy)-2-(methoxycarbonyl)phenyl)-2-oxo-1,2,3,4-tetrahydroquinazoline-7-carboxylate] |
